Laboratory results: US10280179B2, “Spiroquinoxaline derivatives as inhibitors of non-apoptotic regulated cell-death” (Helmholtz Zentrum Munchen—Deutches Forschungszentrum Fur …, priority 2013, dated 2019)
Where two headings read alike, the source gives them in different places.

Tests used:
[1] = tested on: mouse hippocampal cell line (Ht22); assay: Inhibition of glutamate-induced non-apoptotic cell death (Example B.2); format: cell-based; settings: HT-22, Ht22 cells
Method in brief: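 Ht22 cells (2,000/well, DMEM/10% FBS) seeded together with 5 mM glutamate and compound (0.5 pM to 100 μM, triplicate), incubated 72 h at 37 °C/5% CO2. Cell survival then quantified; glutamate alone as negative control, alpha-tocopherol as positive control.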

[2] = tested on: C57BL/6 mice; assay: Liver ischemia-reperfusion injury animal model (Example C.1); format: in vivo, mouse; settings: liver IRI (90 min ischemia, 24 h reperfusion), single i.p. dose 10 mg/Kg, compared to vehicle control
Method: FIG. 2: Efficacy of a compound of the invention in an animal model of liver IRI. […] The “Sham” bar represents the data from control animals that were treated to the same protocol but without atraumatic clipping. Errors shown are SEM. Significant differences are seen between IRI+vehicle compared to IRI+Cmpd, as well as between IRI+vehicle compared to Sham+vehicle.
Briefly, to test such utility of compounds disclosed herein, ischemia is induced in the liver of 6-8 week old C57BL/6 mice (Charles River) by midline laparotomy whereby the blood supply to the left and median lobes of the liver is interrupted via atraumatic clipping for 90 min, followed by reperfusion for a period of 24 h. After reperfusion, but prior to final abdominal closure, animals are treated with a single i.p. dose of the compound to be tested (10 mg/Kg), or with vehicle (DMSO) as negative control. Markers to be investigated for IRI of liver include liver parameters from serum (ALT/GPT, AST/GOT, Bilirubin, Urea), histopathological analysis and rtPCR of inflammatory and non-apoptotic cell death markers (such as TNF-alpha and INF-gamma). […] The “Sham” bar represents the data from control animals that were treated to the same protocol but without atraumatic clipping.

[3] = tested on: Pfa1 cells; assay: Inhibition of non-apoptotic cell death after tamoxifen-induced GPx4 knockout in a recombinant cell line (Example B.4); format: cell-based; settings: Mus musculus, read-out: Pfa1/TAM IC50
Method in brief: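 Immortalised murine fibroblasts with tamoxifen-inducible CreERT2 for ablation of both GPx4 copies (Pfa1 cells) received tamoxifen on day 0 together with test compound. Cell survival was measured by AlamarBlue after 72 hours.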

[4] = tested on: C57BL/6 mice; assay: Traumatic brain injury (controlled cortical impact) animal model (Example C.5); format: in vivo, mouse; settings: TBI (CCI), 24 h after CCI, compared to vehicle control, FIG. 4
Method: FIG. 4: Efficiency of a compound of the invention in an animal model of traumatic brain injury.
Briefly, to test such utility of compounds disclosed herein, male C57BL/6 mice are anesthetised prior to the induction of trauma. Core body temperature is maintained at 37° C. using a feedback-controlled heating pad connected to a rectal probe. To induce trauma, a craniotomy is prepared over the right parietal cortex. Controlled cortical impact (CCI) is delivered perpendicular to the surface of the brain with a custom-made CCI applicator for mice using the following parameters: 8 m/s velocity, 3 mm diameter, 1 mm brain displacement and 150 ms duration. Following CCI, the skull is closed by affixing the removed bone flap using veterinary-grade tissue glue (Vetbond, 3M, St. Paul, Minn.). Compounds are administered at 1 mg/Kg or 10 mg/Kg (dissolved in 40% PEG) 15 minutes after TBI induction and 40% PEG is included as vehicle control. The animals are recovered from anesthesia in an incubator heated to 33° C. Animals are sacrificed and the brain is removed 24 h after CCI and immediately frozen on crushed dry ice and stored at −80° C. […] The sections are stained with cresyl violet for quantifying the area of contused brain, and contusion volume is calculated and the effect of the compounds tested observed following analysis of such data.

[5] = Cellular toxicity, same assay as Example B.4 without TAM (Example B.5); format: cell-based; settings: mouse; Pfa1 cells without TAM; read-out: TC50 (the source's name)
Excerpt: Cellular Toxicity of Compounds of the Invention
An estimate of the toxicity for compounds of the invention was obtained by using the same assay as described in Example B.4, but without the addition of TAM. […] Such TC50 values obtained for certain compounds disclosed herein, together with an approximate therapeutic window (estimated by dividing each TC50 by the corresponding IC50 determined from example B.4) are shown in Table 3.

Clc1cccc(CNC2=Nc3ccccc3NC23CCNCC3)c1 [N-2]
IC50 ([1]; glutamate 5 mM, 72 hours, cell survival, read-out: Ht22/GLU (Example B.2) IC50): ~10 nM | IC50 ([1]; glutamate-induced cell death, read-out: Ht22/GLU): < 200 nM | serum marker for liver cell damage GPT ([2]; FIG. 2(a)): significant reduction | serum marker for liver cell damage GOT ([2]; FIG. 2(b)): significant reduction | IC50 [3]: < 20 nM | contusion volume in the brains of mice following traumatic brain injury [4]: trend of a (non-significant) positive effect | CC50 [5]: 5 to 10 µM
